row,SMILES,melting point
1,O=c1c2ccccc2ncn1CCN1CC=C(c2c[nH]c3ccccc23)CC1,132 °C
2,CCCCCCCCCCCCNC(=O)CC(Br)C(=O)O (stereo not drawn),62 to 70 °C
3,Cc1ccccc1NC(=O)Nc1ccc(-c2c(C(C)C)sc3ncnc(N)c23)cc1,233 to 234 °C
4,Cc1ccc(NC(=O)Nc2cnc3ccc(Cl)cc3c2-c2ccccc2)c(C)c1,230 to 231 °C
5,CSc1nnc(C(C)C2CC2)c(=O)n1N (stereo not drawn),111 to 113 °C
6,CCOC(=O)Nc1ccc(N(CC)CC)cc1,31 to 33 °C
7,COC(=O)CC(NC(=O)C1CC=CCC1)C(C)=O (stereo not drawn),69 to 70 °C
8,C/C(C=O)=C\c1ccc([N+](=O)[O-])cc1,112 to 114 °C
9,O=C(CO)NCCCCCCCCCCCCNC(=O)CO,94 to 97 °C
10,CS(=O)(=O)OCc1cc(-c2ccc3occc3c2)nn(Cc2ccc(F)cc2)c1=O,162 to 165 °C
11,Cc1cccc(-c2n[nH]cc2-c2ccc(F)c(-c3ccc(OCCO)cn3)c2)n1,148 to 151 °C
12,CCN(CC)CCNC(=O)c1cc(Cl)c(N)cc1OCCSC,118 to 120 °C
13,Cc1cc2nc(Cl)c3cnc(Cl)cc3n2n1,203 °C
14,COC(=O)C(Cl)=Cc1cc(-n2c(OC)nc(C(F)(F)F)cc2=O)ccc1Cl,151 to 152 °C
15,CCC(=O)Nc1cc(C(C)(C)C)[nH]n1,228 to 229 °C
16,CC1(CF)C=C(C#N)c2cc([N+](=O)[O-])ccc2O1 (stereo not drawn),169 to 171 °C
17,CC(C)C(NC(=O)c1ccc(Cl)cc1)NC(=NC#N)Nc1cccnc1 (stereo not drawn),182 to 184 °C
18,O=C(O)c1cccc(NC(=O)c2sc3c([N+](=O)[O-])c(O)c(O)cc3c2Cl)c1,293 to 294 °C
19,COc1ccc2c(Cc3c(Cl)cncc3Cl)nnc(N(C)C)c2c1,170 to 173 °C
20,Cc1noc(-c2ccc(Br)c(C)c2)n1,75 to 77 °C
21,COc1ccc2cc(N(C(C)=O)c3ccc(O)cc3)ccc2c1,187 to 188 °C
22,Cc1ccc(SCc2c(C(C)C)nc(C(C)C)c(CO)c2-c2ccc(F)cc2)cc1,90 to 91 °C

row,SMILES,melting point
1,Cc1cc(C(N)=O)ncc1C(c1c(F)ccc(F)c1F)S(=O)(=O)c1ccc(F)c(F)c1 (stereo not drawn),200 to 201 °C
2,CCCCCCCCCCCCCC(=O)OCC1(CO)CCC(=O)O1 (stereo not drawn),65 to 66 °C
3,COC(=O)N[C@@H]1CN2C(=O)N(c3cc(Cl)nc(Cl)c3)C(=O)[C@@]2(Cc2ccc(OC(F)(F)F)cc2)C1,120 °C
4,Cc1cnc2c(c1)CCCC2Cl (stereo not drawn),177 °C
5,CCc1nc2cc(C(F)(F)F)c(Cl)cc2n1-c1ccc(C[C@H](C)OC(=O)NS(=O)(=O)c2ccc(C)cc2)cc1,200 °C
6,COC(=O)c1ccc(OCCCCCCc2ccc3cc(OCc4ccccc4)c(OCc4ccccc4)cc3c2)cc1,121 to 125 °C
7,COc1ccc2c3c1OC1CCCC4(O)C(C2)N(C(=O)C2CCC2)CCC314 (stereo not drawn),140 °C
8,COc1cc(C(N)C(N)=O)c(F)cc1Cl (stereo not drawn),162 °C
9,Cc1oc(-c2ccc(-c3ccccc3)cc2)nc1CCOc1ccc(OC(C)(C)C(=O)O)cc1,123 to 124 °C
10,CCc1cc2c(c(CC)n1)CCC(=O)N2,90 to 94 °C
11,CCCCCCCCCCCCCC(=O)O[C@H](CCCCCCCCCCC)CC(=O)NC(=O)[C@@H](N)CO,126 to 130 °C
12,Cc1ccc(OCC#CI)cn1,155 to 157 °C
13,COc1cccc(-c2ccc3ccc(N)nc3n2)c1,270 to 275 °C
14,"COC1CCC(OC)C2=C1C=CC(O)(C(C)=O)C2 (single isomer, unassigned; (-))",130 to 132 °C
15,CCOC(=O)[C@@H]1OC(c2ccc(O)c(OCC)c2)O[C@H]1C(=O)OCC,78 to 80 °C
16,Cn1c(C(F)(F)F)cc(=O)n(-c2nc(Cl)c(C#N)cc2F)c1=O,146 to 148 °C
17,CCc1noc(=O)n1C(=O)NC,82 °C
18,CC(C)Cc1nc(-c2cccnc2)c[nH]c1=O,195 to 196 °C
19,CCC(=O)Nc1cccc(NC(=O)CC(C)(OC)OC)c1,115 °C
20,CN1C(=O)C(C)(C)N=C(c2ccccc2F)c2c1ccc(N)c2Br,217 to 220 °C
21,CCCCCCCCCCCCCCCCCCOc1ccc(C(=O)C=Cc2ccc(SC)cc2)cc1,104 °C
22,CC(=O)c1[nH]cnc1C,140 to 142 °C

# More lines, now with the values ahead:
row,melting point,SMILES
1,186 to 187 °C,Cc1nc2cc3c(cc2s1)C1(CO3)C(=O)N(CC2CCOCC2)c2ccccc21 (stereo not drawn)
2,111 to 112 °C,CC(C)(C)OC(=O)N1CC(CCl)c2ccc([N+](=O)[O-])cc21 (stereo not drawn)
3,71 to 72 °C,CCCn1nc(-c2ccc(OC(=O)CC(C)(C)C)cc2)c2cccc(Cl)c21
4,166 to 167 °C,O=c1c(CCCc2ccco2)cc2cccnc2n1-c1cccc([N+](=O)[O-])c1
5,193 to 200 °C,COc1ccc(N2CCN(c3ccc(N)nc3-c3ccc(C)cc3)CC2)cc1
6,203 to 205 °C,NC(=O)c1c(NC(=O)C2CC2)sc2c1CCCC2=O
7,312 to 314 °C,CN1CCN(c2ccc(Nc3ncc4c(n3)S/C(=C/c3ccc(O)cc3)C(=O)N4)cc2)CC1
8,71 to 72 °C,Cc1ccc(CC(C(=O)c2ccccc2)N2CCCCC2)cc1 (stereo not drawn)
9,164 to 166 °C,O=C(NCC1(c2ccccc2)CCCCC1)Nc1ccc(Cl)cc1
10,100 to 103 °C,O=C(O)Cc1cc(C(=O)c2ccc(I)c([N+](=O)[O-])c2)sc1-c1ccccc1
11,57 to 58.5 °C,C1=CCC2=C(C1)CCc1ccccc1C2CCN1CCCC1 (stereo not drawn)
12,100 to 101 °C,COC(=O)c1ccccc1-c1nc(COc2ccc(CO)cc2OC)c(C)o1
13,159 to 162 °C,COC(=O)C(c1ccc(NC(C)=O)cc1)C1CC1 (stereo not drawn)
14,105 °C,Cc1ccc(-c2nnc3c(n2)CCCC3)nc1-c1ccc(F)cc1
15,166 to 167 °C,CC(C)(N)c1ccc(-c2nc(Nc3cccc(CCN4CCOCC4)c3)ncc2C#N)cc1
16,97 to 99 °C,CCC1(CC)CC(=O)c2ccc(O)cc2O1
17,54 to 55 °C,CCOC(=O)C=Cc1c(-c2ccccc2)nn2ccccc12
18,217 to 218 °C,CC1CN(c2c(F)cc3c(=O)c(C(=O)O)cn(C(C)C)c3c2F)CCN1 (stereo not drawn)
19,234 to 235 °C,CC1CC(=O)NN=C1c1ccc(-n2cnc3c2CCCC3)nc1 (stereo not drawn)
20,163 to 164 °C,CCOC(=O)CCN1CCN(CC2CN(c3ccc(C(=N)NC(=O)c4ccccc4)cc3)C(=O)O2)CC1 (stereo not drawn)

row,melting point,SMILES
1,145 °C,COc1ccccc1C(=O)c1c(SC)oc2ccccc2c1=O
2,136 to 137 °C,COC(=O)c1ccc(C2(c3ccc4c(c3)C3(C)C5(C)CCC(C5)C3(C)O4)OCCO2)cc1 (stereo not drawn)
3,223 °C,CCCn1c(-c2ccccc2)nc2cc(C(=O)O)ccc21
4,118 to 119 °C,Cc1ccc(-c2nc(CCC(=O)c3ccc(Br)s3)c(C)o2)cc1
5,294 to 296 °C,NOCc1ccc2c(c1)-c1n[nH]c(=O)c3cccc(c13)O2
6,49 to 50 °C,Clc1ccc(-c2coc(CCCI)n2)cc1
7,89 to 91 °C,C[C@H](NC(=O)OCc1ccccc1)C(=O)c1ccc(OCc2ccccc2)cc1
8,200 to 201 °C,CCCCCCCCCCOc1ccc(-c2nc3ccc(C(=O)O)cc3o2)cc1C12CC3CC(CC(C3)C1)C2
9,69.2 to 70 °C,CC(C)(COCc1cccc(Oc2ccccc2)c1)c1ccc(O)cc1
10,142 to 144 °C,COc1ccc(C(=O)Nc2ccccc2)cc1NCc1ccccc1F
11,64 to 65 °C,CCOC(=O)c1c(O)c2cc(Br)ccc2c(=O)n1CC1CC1
12,78 to 80 °C,O[C@H](CCl)COc1ccc(OCc2ccccc2)cc1
13,121 to 123 °C,CCCCn1nnc(-c2ccc(C(=O)NCC3CCCC3(C)C)cc2)n1 (stereo not drawn)
14,73 °C,O=[N+]([O-])c1ccc(Cl)cc1NCC1CCCCC1
15,44 to 46 °C,COc1ccc2c(c1)C(C1CCC1)=NCC2
16,95.5 to 97 °C,CCCCc1ncc(C=O)n1Cc1ccc(C(=O)OC)c2ccccc12
17,96.5 to 97.5 °C,Cc1ccc(C2=CCC(O)CC2)cc1 (stereo not drawn)
18,98 to 99 °C,CCOC(=O)C1(C(=O)OCC)N(c2ccccc2)C(=O)CC1(C)O (stereo not drawn)
19,198 °C,CSc1ccc(-c2ccc(C(=O)Nc3cc4ncc(CN5CCCC5)cc4cc3C)cc2)cc1
20,159 to 160 °C,Cc1ccc(C=Cc2ccc(-c3ccccc3)s2)cc1

row,melting point,SMILES
1,65 to 70 °C,O=C(Cl)[C@@H]1CCC(=O)N1C(=O)OCc1ccccc1
2,135 to 137 °C,O=C1CCC(N2Cc3c(OCc4ccc(CN5CCN(S(=O)(=O)C(F)(F)F)CC5)cc4)cccc3C2=O)C(=O)N1 (stereo not drawn)
3,153 °C,CCCc1nc(C)n2cnnc2c1Cc1ccc(-c2ccccc2C#N)cc1
4,105 to 106 °C,CCCCS(=O)(=O)Nc1cccc(OCc2ccc3ccccc3n2)c1
5,94 to 99 °C,N#CC(c1ccccc1)(c1ccccc1)c1ccc([N+](=O)[O-])cn1
6,148 to 150 °C,CC(=O)Nc1ccc2c(c1)N(C1CCN(CCc3ccc(F)cc3)CC1)CC2
7,152 to 154 °C,COc1ccc2c(c1)C(=O)C(Cc1cccc(NS(=O)(=O)C(F)(F)F)c1)CC2 (stereo not drawn)
8,76 to 77 °C,N[C@@H](Cc1cccc(C(F)(F)F)c1)[C@H](O)c1ccc(F)cc1 (racemic)
9,118 to 120 °C,COc1ccccc1NC(=S)c1ccc(C(F)(F)F)cc1
10,64.5 to 65.5 °C,CCCCCCC(N)(c1ccccc1)C(C)(C)O (stereo not drawn)
11,71 to 72 °C,COc1ccc([N+](=O)[O-])c(C=CN2CCCC2)c1
12,117 to 118 °C,O=C1CC(c2ccc(Cl)cc2Cl)c2cc(Br)ccc2O1 (stereo not drawn)
13,214 °C,COC(=O)c1cccc(S(=O)(=O)N2CCC(N3N=C(c4ccc(OC)c(OC)c4)C(C)(C)C3=O)CC2)c1
14,131 to 134 °C,O=Cc1ccccc1P(=O)(c1ccccc1)c1ccccc1
15,148 to 151 °C,O=C1CCc2ccc(O)c(c2)Oc2ccc(cc2)C=CCO1
16,94 to 97 °C,CN1C(=O)N(c2cc(F)ccc2F)C(=O)C1=Cc1ccccc1F
17,126 to 127 °C,Cn1c(=O)ccc2cc(COc3cc(F)cc(C4CCOCC4)c3)ccc21
18,113 to 115 °C,CN(C)c1ccc(CC(OCC(O)CN2CCCCC2)C(=O)c2ccccc2)cc1 (stereo not drawn)
19,177 to 178 °C,O=C(Nc1ccccc1)N1CCc2cc(S(=O)(=O)N3CCN(c4cccc(Cl)c4)CC3)ccc21
